Test results: patent publication US20170208848A1, “PROCESS FOR MANUFACTURING AN IRON FORTIFIED FOOD PRODUCT” (NESTEC S.A., priority 2014, published 2017)

Assay: Browning of the sprayed regions of the edible material with polysaccharide in the liquid composition
Assay type: physicochemical
Settings: polysaccharide included in the liquid composition
Description: The polysaccharide comprised in the liquid composition of the process of the invention may be selected from the group consisting of maltodextrin, acacia gum, agar-agar, carrageenan, tragacanth, locust bean gum, guar gum, xanthan gum and combinations of these. […] The polysaccharide may be carrageenan or acacia gum.

Substance | browning of the sprayed regions of the edible material
Carrageenan | particularly effective at preventing or delaying browning
acacia gum | particularly effective at preventing or delaying browning
